In patent publication US8921376B2, “Pyrrolopyridines useful as inhibitors of protein kinase” (Vertex Pharmaceuticals Incorporated, priority 2005, dated 2014):

Experiments:
Assay type in all cases: biochemical
JAK3 = molecular target: T1, JAK3 (Homo sapiens, UniProt P52333); test: JAK3 inhibition assay (33P incorporation into poly(Glu)4Tyr)
T1 sequence (P52333 1-1124): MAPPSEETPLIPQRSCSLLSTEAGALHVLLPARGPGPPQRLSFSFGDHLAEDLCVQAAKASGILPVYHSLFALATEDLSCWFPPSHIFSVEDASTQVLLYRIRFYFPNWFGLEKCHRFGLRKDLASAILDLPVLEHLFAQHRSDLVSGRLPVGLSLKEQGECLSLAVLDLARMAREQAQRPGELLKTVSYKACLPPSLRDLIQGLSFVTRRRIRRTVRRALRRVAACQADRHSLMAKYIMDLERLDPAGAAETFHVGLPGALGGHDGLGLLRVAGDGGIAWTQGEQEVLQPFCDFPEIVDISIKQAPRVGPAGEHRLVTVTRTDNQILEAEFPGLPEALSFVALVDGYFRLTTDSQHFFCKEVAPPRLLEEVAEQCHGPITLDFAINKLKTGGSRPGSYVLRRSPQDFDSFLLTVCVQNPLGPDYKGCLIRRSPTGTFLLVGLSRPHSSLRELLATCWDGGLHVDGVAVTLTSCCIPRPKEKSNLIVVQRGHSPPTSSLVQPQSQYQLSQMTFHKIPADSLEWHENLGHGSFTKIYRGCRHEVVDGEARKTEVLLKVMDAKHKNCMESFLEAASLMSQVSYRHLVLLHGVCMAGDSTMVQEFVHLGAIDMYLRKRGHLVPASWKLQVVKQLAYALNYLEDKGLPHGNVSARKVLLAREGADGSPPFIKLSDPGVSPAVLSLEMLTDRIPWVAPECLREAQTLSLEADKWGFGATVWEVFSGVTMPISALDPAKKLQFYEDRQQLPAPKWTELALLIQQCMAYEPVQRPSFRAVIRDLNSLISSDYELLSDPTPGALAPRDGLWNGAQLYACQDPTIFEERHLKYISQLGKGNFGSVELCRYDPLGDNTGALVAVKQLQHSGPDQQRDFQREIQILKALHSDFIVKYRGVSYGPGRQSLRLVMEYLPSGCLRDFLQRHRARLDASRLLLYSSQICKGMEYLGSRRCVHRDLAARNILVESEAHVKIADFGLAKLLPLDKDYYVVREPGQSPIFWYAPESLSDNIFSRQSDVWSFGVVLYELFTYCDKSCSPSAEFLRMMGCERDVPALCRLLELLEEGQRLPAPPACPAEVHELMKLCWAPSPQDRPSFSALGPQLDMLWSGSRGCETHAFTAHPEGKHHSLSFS
Protocol: (§1) Compounds were screened for their ability to inhibit JAK using the assay shown below. Reactions were carried out in a kinase buffer containing 100 mM HEPES (pH 7.4), 1 mM DTT, 10 mM MgCl2, 25 mM NaCl, and 0.01% BSA.
(§2) Substrate concentrations in the assay were 5 μM ATP (200 μCi/μmole ATP) and 1 μM poly(Glu)4Tyr. Reactions were carried out at 25° C. and 1 nM JAK3.
(§3) To each well of a 96 well polycarbonate plate was added 1.5 μl of a candidate JAK3 inhibitor along with 50/1 of kinase buffer containing 2 μM poly(Glu)4Tyr and 10 μM ATP. This was then mixed and 50 μl of kinase buffer containing 2 nM JAK3 enzyme was added to start the reaction. After 20 minutes at room temperature (25 C), the reaction was stopped with 50 μl of 20% trichloroacetic acid (TCA) that also contained 0.4 mM ATP. The entire contents of each well were then transferred to a 96 well glass fiber filter plate using a TomTek Cell Harvester. After washing, 60 μl of scintillation fluid was added and ^33P incorporation detected on a Perkin Elmer TopCount.

JAK2 = JAK2 (Homo sapiens, UniProt O60674); test: JAK2 inhibition assay (as Example 3 with JAK-2 enzyme)
Protocol: as §1, §2, §3
The assays were as described above in Example 3 except that JAK-2 enzyme was used, the final poly(Glu)4Tyr concentration was 15 μM, and final ATP concentration was 12 μM.

ROCK I = ROCK I (Homo sapiens, UniProt Q13464); test: ROCK-I inhibition assay (radioactive enzyme assay, MBP substrate)
Protocol: Compounds were screened for their ability to inhibit ROCK using a standard radioactive enzyme assay. Assays were carried out in a solution containing 100 mM HEPES (pH 7.5), 10 mM MgCl2, 25 mM NaCl, 2 mM DTT, and 1.5% DMSO. Final substrate concentrations in the assay were 13 μM [γ-^33P] ATP (25 mCi ^33P ATP/mmol ATP, Perkin Elmer, Cambridge, Mass./Sigma Chemicals, St Louis, Mo.) and 27 μM Myelin Basic Protein (MBP). Final enzyme concentration in the assay was 5 nM ROCK. Assays were carried out at room temperature. 1.5 μl of DMSO stock containing serial dilutions of the compound of the present invention (concentrations ranging from 10 μM to 2.6 nM) was placed in a 96 well plate. 50 μl of Solution 1 (100 mM HEPES (pH 7.5), 10 mM MgCl2, […]) was added to the plate. The reaction was initiated by addition of 50 μl of Solution 2 (100 mM HEPES (pH 7.5), 10 mM MgCl2, 4 mM DTT, […] and 10 nM ROCK). After 2 hours the reaction was quenched with 50 μL of 30% trichloroacetic acid (TCA, Fisher) containing 9 mM ATP. Transfer of 140 μL of the quenched reaction to a glass fiber filter plate (Corning, Cat. No. 3511) was followed by washing 3 times with 5% TCA. 50 μl of Optima Gold scintillation fluid (Perkin Elmer) was added and the plates were counted on a Top Count (Perkin Elmer). After removing mean background values for all of the data points the data was fit using Prism software to obtain a Ki(app).

[1] = enzyme inhibition, Ki(app), Table 5
[2] = Table 6, enzyme inhibition data (Ki)

Chain of ROCK I (Q13464 whole entry): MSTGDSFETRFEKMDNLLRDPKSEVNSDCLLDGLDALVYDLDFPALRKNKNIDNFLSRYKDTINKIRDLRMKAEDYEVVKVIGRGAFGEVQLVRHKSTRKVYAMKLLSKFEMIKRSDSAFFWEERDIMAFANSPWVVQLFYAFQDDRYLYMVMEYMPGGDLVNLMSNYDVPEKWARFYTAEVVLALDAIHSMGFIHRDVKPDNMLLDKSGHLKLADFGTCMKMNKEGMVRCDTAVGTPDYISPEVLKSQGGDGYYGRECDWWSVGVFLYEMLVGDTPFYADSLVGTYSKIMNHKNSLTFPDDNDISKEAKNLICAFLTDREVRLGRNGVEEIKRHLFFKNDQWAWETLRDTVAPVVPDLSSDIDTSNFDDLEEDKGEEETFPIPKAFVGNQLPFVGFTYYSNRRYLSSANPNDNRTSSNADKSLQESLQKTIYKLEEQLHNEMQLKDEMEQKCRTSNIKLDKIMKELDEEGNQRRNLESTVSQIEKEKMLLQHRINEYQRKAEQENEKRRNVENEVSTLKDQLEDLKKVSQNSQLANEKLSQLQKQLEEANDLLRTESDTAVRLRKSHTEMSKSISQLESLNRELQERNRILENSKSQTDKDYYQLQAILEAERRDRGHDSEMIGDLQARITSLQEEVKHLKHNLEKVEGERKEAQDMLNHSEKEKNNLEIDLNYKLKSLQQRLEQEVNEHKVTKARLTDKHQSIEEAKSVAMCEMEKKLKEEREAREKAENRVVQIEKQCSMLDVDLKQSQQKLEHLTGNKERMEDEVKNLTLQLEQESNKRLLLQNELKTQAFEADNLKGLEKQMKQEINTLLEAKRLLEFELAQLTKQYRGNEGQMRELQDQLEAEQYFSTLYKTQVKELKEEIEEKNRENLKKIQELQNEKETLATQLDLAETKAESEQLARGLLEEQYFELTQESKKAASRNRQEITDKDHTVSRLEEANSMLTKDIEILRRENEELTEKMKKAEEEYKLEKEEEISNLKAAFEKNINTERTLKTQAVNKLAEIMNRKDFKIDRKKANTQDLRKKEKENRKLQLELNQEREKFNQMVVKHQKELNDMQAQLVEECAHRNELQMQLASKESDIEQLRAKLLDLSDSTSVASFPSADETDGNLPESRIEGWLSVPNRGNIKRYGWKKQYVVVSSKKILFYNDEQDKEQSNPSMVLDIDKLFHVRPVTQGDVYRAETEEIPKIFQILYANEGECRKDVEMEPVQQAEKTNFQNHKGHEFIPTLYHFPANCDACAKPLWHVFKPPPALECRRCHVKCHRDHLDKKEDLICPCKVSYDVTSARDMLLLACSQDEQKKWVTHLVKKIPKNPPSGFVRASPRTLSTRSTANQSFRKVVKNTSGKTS
Chain of JAK2 (O60674 whole entry): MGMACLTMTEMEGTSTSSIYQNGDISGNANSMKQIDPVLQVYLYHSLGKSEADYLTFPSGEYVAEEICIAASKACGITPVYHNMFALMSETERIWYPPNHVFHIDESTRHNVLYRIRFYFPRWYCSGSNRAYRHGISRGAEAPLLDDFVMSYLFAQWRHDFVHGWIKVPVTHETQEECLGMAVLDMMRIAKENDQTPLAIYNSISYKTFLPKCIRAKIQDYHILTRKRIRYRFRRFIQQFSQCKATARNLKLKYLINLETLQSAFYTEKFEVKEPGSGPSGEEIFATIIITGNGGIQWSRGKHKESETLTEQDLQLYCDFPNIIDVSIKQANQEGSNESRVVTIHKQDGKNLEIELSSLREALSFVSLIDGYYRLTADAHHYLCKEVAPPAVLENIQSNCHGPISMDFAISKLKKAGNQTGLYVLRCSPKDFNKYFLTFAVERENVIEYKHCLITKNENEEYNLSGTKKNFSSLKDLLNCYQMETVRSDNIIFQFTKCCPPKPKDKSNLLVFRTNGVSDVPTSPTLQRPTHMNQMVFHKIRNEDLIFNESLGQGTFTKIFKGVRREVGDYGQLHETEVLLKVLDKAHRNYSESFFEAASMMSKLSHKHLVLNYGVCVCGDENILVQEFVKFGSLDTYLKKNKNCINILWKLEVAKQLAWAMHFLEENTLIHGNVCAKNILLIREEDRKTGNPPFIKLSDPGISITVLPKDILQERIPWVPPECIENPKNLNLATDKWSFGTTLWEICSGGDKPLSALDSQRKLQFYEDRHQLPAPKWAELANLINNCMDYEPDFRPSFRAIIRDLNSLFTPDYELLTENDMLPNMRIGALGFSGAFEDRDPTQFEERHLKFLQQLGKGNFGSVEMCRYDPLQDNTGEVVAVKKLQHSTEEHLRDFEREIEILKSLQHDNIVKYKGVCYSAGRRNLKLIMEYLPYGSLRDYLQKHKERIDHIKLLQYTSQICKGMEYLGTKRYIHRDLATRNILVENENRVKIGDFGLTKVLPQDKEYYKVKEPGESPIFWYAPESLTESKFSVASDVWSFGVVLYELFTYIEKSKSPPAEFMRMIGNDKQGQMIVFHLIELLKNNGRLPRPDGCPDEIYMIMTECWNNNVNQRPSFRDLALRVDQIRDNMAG

| Compound | Ki (JAK3; enzyme inhibition, Table 5) | Ki (JAK2; enzyme inhibition, Table 5) | Ki (ROCK I; [1]) | Ki (JAK3; [2]) | Ki (JAK2; [2]) | Ki (ROCK I; [2]) |
| --- | --- | --- | --- | --- | --- | --- |
| Clc1ccccc1CCNc1cccc(-c2ccnc3[nH]ccc23)n1 [compound 34, N-(2-Chlorophenethyl)-6-(1H-pyrrolo[2,3-b]pyridin-4-yl)pyridin-2-amine] | 500 to 5000 nM | 500 to 5000 nM | 500 to 5000 nM | – | – | – |
| c1cc(-c2ccnc3[nH]ccc23)c2ccoc2c1 [compound 115, 4-Benzofuran-4-yl-1H-pyrrolo[2,3-b]pyridine] | < 500 nM | < 500 nM | < 500 nM | – | – | – |
| Clc1cnc2[nH]ccc2c1C1=CCCCC1 [compound 29, 5-Chloro-4-cyclohexenyl-1H-pyrrolo[2,3b]pyridine] | < 500 nM | < 500 nM | 500 to 5000 nM | – | – | – |
| CC1CCCC=C1c1c(Cl)cnc2[nH]ccc12 (stereo not drawn) [compound 68] | < 500 nM | 500 to 5000 nM | 500 to 5000 nM | – | – | – |
| CCCS(=O)(=O)N1CC[C@@H](Nc2c(Cl)cnc3[nH]ccc23)C1 [compound 180] | – | – | – | < 500 nM | < 500 nM | > 4000 nM |
| c1cc(-c2ccnc3[nH]ccc23)[nH]n1 [compound 106, 4-(2H-Pyrazol-3-yl)-1H-pyrrolo[2,3-b]pyridine] | < 500 nM | 500 to 5000 nM | < 500 nM | – | – | – |
| NC(=O)C1CCCN1C(=O)c1cc(-c2ccnc3[nH]ccc23)c[nH]1 (stereo not drawn) [compound 368] | – | – | – | < 500 nM | 500 to 5000 nM | 500 to 5000 nM |
| C[C@H](Nc1ccnc(-c2ccnc3[nH]ccc23)n1)C(=O)NCC(F)(F)F [compound 120, (S)-2-(2-(1H-pyrrolo[2,3b]pyridin-4-yl)pyrimidin-4-ylamino)-N-(2,2,2-trifluoroethyl)propanamide] | < 500 nM | 500 to 5000 nM | 500 to 5000 nM | – | – | – |
| O=C(c1ccc(-c2ccnc3[nH]ccc23)s1)N1CCC[C@@H]1CO [compound 11] | < 500 nM | – | < 500 nM | – | – | – |
| CCN(CCO)C(=O)c1cc(-c2c(Cl)cnc3[nH]ccc23)c[nH]1 [compound 345] | – | – | – | < 500 nM | < 500 nM | 500 to 5000 nM |
| CC(=O)N1CC=C(c2ccnc3[nH]ccc23)CC1 [compound 64] | 500 to 5000 nM | 500 to 5000 nM | 500 to 5000 nM | – | – | – |
| CN(CCC#N)C(=O)c1ccc(-c2ccnc3[nH]ccc23)s1 [compound 322] | – | – | – | < 500 nM | < 500 nM | < 500 nM |
| c1cc(NCC2COc3ccccc3O2)nc(-c2ccnc3[nH]ccc23)c1 (stereo not drawn) [compound 58, N-((2,3-Dihydrobenzo[b][1,4]dioxin-2-yl)methyl)-6-(1H-pyrrolo[2,3-b]pyridin-4-yl)pyridin-2-amine] | 500 to 5000 nM | 500 to 5000 nM | 500 to 5000 nM | – | – | – |
| COc1cc(-c2ccnc3[nH]ccc23)cc(OC)c1OC [compound 40, 4-(3,4,5-Trimethoxy-phenyl)-1H-pyrrolo[2,3-b]pyridine] | 500 to 5000 nM | 500 to 5000 nM | 500 to 5000 nM | – | – | – |
| Clc1cnc2[nH]ccc2c1N[C@@H]1C[C@H]2CC[C@@H]1C2 [compound 150] | – | – | – | < 500 nM | < 500 nM | < 500 nM |
| CCN(CCC#N)C(=O)c1cc(-c2c(Cl)cnc3[nH]ccc23)c[nH]1 [compound 329] | – | – | – | < 500 nM | < 500 nM | 500 to 5000 nM |
| CCN(Cc1ccccc1)C(=O)c1cc(-c2ccnc3[nH]ccc23)c[nH]1 [compound 313] | – | – | – | < 500 nM | < 500 nM | < 500 nM |
| O=C(NC1CC1)c1cc(-c2ccnc3[nH]ccc23)c[nH]1 [compound 285] | – | – | – | < 500 nM | < 500 nM | < 500 nM |
| N#CC1(c2cccc(-c3ccnc4[nH]ccc34)n2)CCCC1 [compound 102, 1-(6-(1H-pyrrolo[2,3-b]pyridin-4-yl)pyridin-2-yl)cyclopentanecarbonitrile] | < 500 nM | < 500 nM | < 500 nM | – | – | – |

| Compound | Ki (JAK3; enzyme inhibition, Table 5) | Ki (JAK2; enzyme inhibition, Table 5) | Ki (ROCK I; [1]) | Ki (JAK3; [2]) | Ki (JAK2; [2]) | Ki (ROCK I; [2]) |
| --- | --- | --- | --- | --- | --- | --- |
| C[C@@H](CO)NC(=O)c1ccc(-c2ccnc3[nH]ccc23)s1 [compound 15] | < 500 nM | – | < 500 nM | – | – | – |
| O=C(N[C@H](CO)c1cccc(Cl)c1)c1cc(-c2ccnc3[nH]ccc23)c[nH]1 [compound 2] | 500 to 5000 nM | – | – | – | – | – |
| COC[C@H]1CCCN1C(=O)c1ccc(-c2ccnc3[nH]ccc23)s1 [compound 13] | < 500 nM | – | < 500 nM | – | – | – |
| COC[C@@H]1CCCN1C(=O)c1ccc(-c2ccnc3[nH]ccc23)s1 [compound 12] | 500 to 5000 nM | – | 500 to 5000 nM | – | – | – |
| O=C(c1ccc(-c2ccnc3[nH]ccc23)s1)N1CCC[C@H]1CO [compound 10] | < 500 nM | – | < 500 nM | – | – | – |
| O=C(c1ccc(-c2ccnc3[nH]ccc23)s1)N1CCNCC1 [compound 4] | < 500 nM | – | < 500 nM | – | – | – |
| CS(=O)(=O)Nc1cccc(CC(=O)Nc2cc(-c3ccnc4[nH]ccc34)cs2)c1 [compound 3] | < 500 nM | – | < 500 nM | – | – | – |
| COc1ccc(-c2ccnc3[nH]ccc23)cc1OC [compound 1, 4-(3,4-dimethoxyphenyl)-1H-pyrrolo[2,3-b]pyridine] | 500 to 5000 nM | – | – | – | – | – |
| CCC(CC)NC(=O)c1ccc(-c2ccnc3[nH]ccc23)s1 [compound 17] | < 500 nM | – | < 500 nM | – | – | – |
| CCCNC(=O)c1ccc(-c2ccnc3[nH]ccc23)s1 [compound 7] | < 500 nM | – | < 500 nM | – | – | – |
| c1cc(NC2CCCC2)nc(-c2ccnc3[nH]ccc23)c1 [compound 24, N-Cyclopentyl-6-(1H-pyrrolo[2,3-b]pyridin-4-yl)pyridin-2-amine] | 500 to 5000 nM | 500 to 5000 nM | – | – | – | – |
| CCC(CO)NC(=O)c1ccc(-c2ccnc3[nH]ccc23)s1 (racemic) [compound 14] | < 500 nM | – | < 500 nM | – | – | – |
| O=C(NCCO)c1ccc(-c2ccnc3[nH]ccc23)s1 [compound 8] | < 500 nM | – | < 500 nM | – | – | – |
| CC(=O)N(Cc1ccccc1)c1cc(-c2ccnc3[nH]ccc23)cs1 [compound 21] | < 500 nM | – | 500 to 5000 nM | – | – | – |
| COCC(=O)Nc1cc(-c2ccnc3[nH]ccc23)cs1 [compound 23] | 500 to 5000 nM | – | < 500 nM | – | – | – |
| COCCNC(=O)c1ccc(-c2ccnc3[nH]ccc23)s1 [compound 9] | < 500 nM | – | < 500 nM | – | – | – |
| CC(C)C(CO)NC(=O)c1ccc(-c2ccnc3[nH]ccc23)s1 (stereo not drawn) [compound 16] | < 500 nM | – | < 500 nM | – | – | – |
| O=C(NCC1CCCO1)c1ccc(-c2ccnc3[nH]ccc23)s1 (stereo not drawn) [compound 6] | < 500 nM | – | < 500 nM | – | – | – |
